Biological target: T1, recombinant Vps34 (Homo sapiens, UniProt Q8NEB9)
T1 construct: purchased Invitrogen PV5126
Assay: Phosphorylation of phosphatidylinositol (PI) by Vps34 in vitro, ADP detected by TR-FRET (HTRF Transcreener ADP)
Type: biochemical
Conditions: 10 μM ATP, 55 μg/ml PI, approximately 3 nM Vps34, 1 hour at ambient temperature; absolute IC50, mean of two independent experiments; read-out: IC50 activity range

T1 sequence (Q8NEB9 whole entry): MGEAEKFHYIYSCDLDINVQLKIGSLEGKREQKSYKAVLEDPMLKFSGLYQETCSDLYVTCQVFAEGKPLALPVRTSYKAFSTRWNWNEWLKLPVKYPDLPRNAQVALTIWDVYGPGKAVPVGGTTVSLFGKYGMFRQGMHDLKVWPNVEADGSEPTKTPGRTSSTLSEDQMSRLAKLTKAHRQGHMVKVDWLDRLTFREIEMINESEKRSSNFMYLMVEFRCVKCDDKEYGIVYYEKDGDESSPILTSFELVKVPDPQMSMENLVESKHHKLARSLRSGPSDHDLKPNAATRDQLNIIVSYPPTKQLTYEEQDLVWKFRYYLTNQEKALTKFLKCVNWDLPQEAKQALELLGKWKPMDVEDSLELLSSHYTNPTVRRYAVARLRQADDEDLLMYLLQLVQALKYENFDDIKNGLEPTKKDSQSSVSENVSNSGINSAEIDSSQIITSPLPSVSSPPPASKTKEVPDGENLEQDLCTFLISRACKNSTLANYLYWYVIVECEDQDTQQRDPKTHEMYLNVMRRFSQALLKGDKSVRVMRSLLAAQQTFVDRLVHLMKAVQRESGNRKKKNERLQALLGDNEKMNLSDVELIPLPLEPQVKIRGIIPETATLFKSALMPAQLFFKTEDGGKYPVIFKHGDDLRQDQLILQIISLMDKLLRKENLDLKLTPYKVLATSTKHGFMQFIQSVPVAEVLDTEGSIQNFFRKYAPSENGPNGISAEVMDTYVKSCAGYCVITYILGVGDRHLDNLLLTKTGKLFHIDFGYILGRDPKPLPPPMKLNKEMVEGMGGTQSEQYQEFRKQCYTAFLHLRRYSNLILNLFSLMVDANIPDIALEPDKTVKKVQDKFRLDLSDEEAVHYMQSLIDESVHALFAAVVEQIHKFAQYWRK

Compound | IC50
C[C@@H]1COCCN1c1nc2n(c(=O)c1F)CC[C@@H](C(F)(F)F)N2CC(=O)c1nccs1 [Example 68, (S)-3-Fluoro-2-((R)-3-methylmorpholin-4-yl)-9-(2-oxo-2-thiazol-2-yl-ethyl)-8-trifluoromethyl-6,7,8,9-tetrahydro-pyrimido[1,2-a]-pyrimidin-4-one] | < 10 nM
C[C@@H]1COCCN1c1nc2n(c(=O)c1F)CC[C@@H](C(F)(F)F)N2Cc1cscn1 [Example 69, (S)-3-Fluoro-2-((R)-3-methylmorpholin-4-yl)-9-thiazol-4-ylmethyl-8-trifluoromethyl-6,7,8,9-tetrahydro-pyrimido[1,2-a]-pyrimidin-4-one] | < 10 nM
C[C@@H]1COCCN1c1cc(=O)n2c(n1)N(CC(=O)c1ccc(F)cn1)[C@H](C(F)(F)F)CC2 [Example 70, (S)-9-[2-(5-Fluoro-pyridin-2-yl)-2-oxo-ethyl]-2-((R)-3-methyl-morpholin-4-yl)-8-trifluoromethyl-6,7,8,9-tetrahydro-pyrimido[1,2-a]-pyrimidin-4-one] | < 10 nM
C[C@@H]1COCCN1c1nc2n(c(=O)c1F)CCC(C)(C)N2CC(=O)c1ccccn1 [Example 71, 3-Fluoro-8,8-dimethyl-2-((R)-3-methyl-morpholin-4-yl)-9-(2-oxo-2-pyridin-2-yl-ethyl)-6,7,8,9-tetrahydro-pyrimido[1,2-a]-pyrimidin-4-one] | < 10 nM
C[C@@H]1COCCN1c1cc(=O)n2c(n1)N(Cc1ccnn1C(F)F)C(C)(C)CC2 [Example 72, 9-(2-Difluoromethyl-2H-pyrazol-3-yl-methyl)-8,8-dimethyl-2-((R)-3-methyl-morpholin-4-yl)-6,7,8,9-tetrahydro-pyrimido[1,2-a]-pyrimidin-4-one] | 10 to 100 nM
C[C@@H]1COCCN1c1nc2n(c(=O)c1F)CCC(C)(C)N2Cc1ccon1 [Example 73, 3-Fluoro-9-isoxazol-3-ylmethyl-8,8-dimethyl-2-((R)-3-methyl-morpholin-4-yl)-6,7,8,9-tetrahydro-pyrimido[1,2-a]-pyrimidin-4-one] | 10 to 100 nM
C[C@@H]1COCCN1c1nc2n(c(=O)c1F)CCC(C)(C)N2Cc1ccnn1C(F)F [Example 74, 9-(2-Difluoromethyl-2H-pyrazol-3-yl-methyl)-3-fluoro-8,8-dimethyl-2-((R)-3-methylmorpholin-4-yl)-6,7,8,9-tetrahydro-pyrimido[1,2-a]-pyrimidin-4-one] | 10 to 100 nM
C[C@@H]1COCCN1c1cc(=O)n2c(n1)N(c1cccc(F)c1)[C@H](C(F)(F)F)CC2 [Example 75, (S)-9-(3-Fluoro-phenyl)-2-((R)-3-methylmorpholin-4-yl)-8-trifluoromethyl-6,7,8,9-tetrahydro-pyrimido[1,2-a]-pyrimidin-4-one] | < 10 nM
C[C@@H]1COCCN1c1cc(=O)n2c(n1)N(Cc1ccnc(Cl)c1)[C@H](C(F)(F)F)CC2 [Example 76, (S)-9-(2-Chloro-pyridin-4-ylmethyl)-2-((R)-3-methyl-morpholin-4-yl)-8-trifluoromethyl-6,7,8,9-tetrahydro-pyrimido[1,2-a]-pyrimidin-4-one] | < 10 nM
C[C@@H]1COCCN1c1cc(=O)n2c(n1)N(Cc1ncco1)[C@H](C(F)(F)F)CC2 [Example 77, (S)-2-((R)-3-Methyl-morpholin-4-yl)-9-oxazol-2-ylmethyl-8-trifluoromethyl-6,7,8,9-tetrahydro-pyrimido[1,2-a]-pyrimidin-4-one] | 10 to 100 nM
C[C@@H]1COCCN1c1cc(=O)n2c(n1)N(Cc1cscn1)[C@H](C(F)(F)F)CC2 [Example 78, (S)-2-((R)-3-Methyl-morpholin-4-yl)-9-thiazol-4-ylmethyl-8-trifluoromethyl-6,7,8,9-tetrahydro-pyrimido[1,2-a]-pyrimidin-4-one] | < 10 nM
C[C@@H]1COCCN1c1cc(=O)n2c(n1)N(c1ccnc(Cl)c1)[C@H](C(F)(F)F)CC2 [Example 79, (S)-9-(2-Chloro-pyridin-4-yl)-2-((R)-3-methylmorpholin-4-yl)-8-trifluoromethyl-6,7,8,9-tetrahydro-pyrimido[1,2-a]-pyrimidin-4-one] | < 10 nM
COc1cc(N2c3nc(N4CCOC[C@H]4C)cc(=O)n3CC[C@H]2C(F)(F)F)ccn1 [Example 80, (S)-9-(2-Methoxy-pyridin-4-yl)-2-((R)-3-methylmorpholin-4-yl)-8-trifluoromethyl-6,7,8,9-tetrahydro-pyrimido[1,2-a]-pyrimidin-4-one] | < 10 nM
C[C@@H]1COCCN1c1cc(=O)n2c(n1)N(c1ccc(C(F)(F)F)nc1)[C@H](C(F)(F)F)CC2 [Example 81, (S)-2-((R)-3-Methyl-morpholin-4-yl)-8-trifluoromethyl-9-(6-trifluoromethylpyridin-3-yl)-6,7,8,9-tetrahydro-pyrimido[1,2-a]-pyrimidin-4-one] | < 10 nM
C[C@@H]1COCCN1c1cc(=O)n2c(n1)N(CCOCC(F)(F)F)[C@H](C(F)(F)F)CC2 [Example 82, (S)-2-((R)-3-Methyl-morpholin-4-yl)-9-[2-(2,2,2-trifluoro-ethoxy)ethyl]-8-trifluoromethyl-6,7,8,9-tetrahydro-pyrimido[1,2-a]-pyrimidin-4-one] | < 10 nM
Cc1ccc(N2c3nc(N4CCOC[C@H]4C)cc(=O)n3CC[C@H]2C(F)(F)F)cn1 [Example 83, (S)-2-((R)-3-Methyl-morpholin-4-yl)-9-(6-methylpyridin-3-yl)-8-trifluoromethyl-6,7,8,9-tetrahydro-pyrimido[1,2-a]-pyrimidin-4-one] | < 10 nM
C[C@@H]1COCCN1c1cc(=O)n2c(n1)N(CC(C)(C)O)[C@H](C(F)(F)F)CC2 [Example 84, (S)-9-(2-Hydroxy-2-methylpropyl)-2-((R)-3-methylmorpholin-4-yl)-8-trifluoromethyl-6,7,8,9-tetrahydro-pyrimido[1,2-a]-pyrimidin-4-one] | < 10 nM
CC(C)Oc1ccc(N2c3nc(N4CCOC[C@H]4C)cc(=O)n3CC[C@H]2C(F)(F)F)cn1 [Example 85, (S)-9-(6-Isopropoxy-pyridin-3-yl)-2-((R)-3-methylmorpholin-4-yl)-8-trifluoromethyl-6,7,8,9-tetrahydro-pyrimido[1,2-a]-pyrimidin-4-one] | < 10 nM
C[C@@H]1COCCN1c1cc(=O)n2c(n1)N(Cc1ccc(Cl)cn1)[C@H](C(F)(F)F)CC2 [Example 86, (S)-9-(5-Chloro-pyridin-2-ylmethyl)-2-((R)-3-methyl-morpholin-4-yl)-8-trifluoromethyl-6,7,8,9-tetrahydro-pyrimido[1,2-a]-pyrimidin-4-one] | < 10 nM
C[C@@H]1COCCN1c1cc(=O)n2c(n1)N(Cc1cncs1)[C@H](C(F)(F)F)CC2 [Example 87, (S)-2-((R)-3-Methyl-morpholin-4-yl)-9-thiazol-5-ylmethyl-8-trifluoromethyl-6,7,8,9-tetrahydro-pyrimido[1,2-a]-pyrimidin-4-one] | < 10 nM
C[C@@H]1COCCN1c1cc(=O)n2c(n1)N(c1ccc(C3CCC3)nc1)[C@H](C(F)(F)F)CC2 [Example 88, (S)-9-(6-Cyclobutyl-pyridin-3-yl)-2-((R)-3-methylmorpholin-4-yl)-8-trifluoromethyl-6,7,8,9-tetrahydro-pyrimido[1,2-a]-pyrimidin-4-one] | < 10 nM
C[C@@H]1COCCN1c1cc(=O)n2c(n1)N(c1ccnc(C3CC3)c1)[C@H](C(F)(F)F)CC2 [Example 89, (S)-9-(2-Cyclopropyl-pyridin-4-yl)-2-((R)-3-methylmorpholin-4-yl)-8-trifluoromethyl-6,7,8,9-tetrahydro-pyrimido[1,2-a]-pyrimidin-4-one] | < 10 nM
COCCN1c2nc(N3CCOC[C@H]3C)cc(=O)n2CC[C@H]1C(F)(F)F [Example 90, (S)-9-(2-Methoxy-ethyl)-2-((R)-3-methyl-morpholin-4-yl)-8-trifluoromethyl-6,7,8,9-tetrahydro-pyrimido[1,2-a]-pyrimidin-4-one] | < 10 nM
C[C@@H]1COCCN1c1cc(=O)n2c(n1)N(Cc1cnco1)[C@H](C(F)(F)F)CC2 [Example 91, (S)-2-((R)-3-Methyl-morpholin-4-yl)-9-oxazol-5-ylmethyl-8-trifluoromethyl-6,7,8,9-tetrahydro-pyrimido[1,2-a]-pyrimidin-4-one] | < 10 nM
C[C@@H]1COCCN1c1cc(=O)n2c(n1)N(Cc1ccc(F)cn1)[C@H](C(F)(F)F)CC2 [Example 92, (S)-9-(5-Fluoropyridin-2-ylmethyl)-2-((R)-3-methylmorpholin-4-yl)-8-trifluoromethyl-6,7,8,9-tetrahydro-pyrimido[1,2-a]-pyrimidin-4-one] | < 10 nM
Cc1nc(CN2c3nc(N4CCOC[C@H]4C)cc(=O)n3CC[C@H]2C(F)(F)F)c(C)o1 [Example 93, (S)-9-(2,5-Dimethyl-oxazol-4-ylmethyl)-2-((R)-3-methyl-morpholin-4-yl)-8-trifluoromethyl-6,7,8,9-tetrahydro-pyrimido[1,2-a]-pyrimidin-4-one] | < 10 nM
C[C@@H]1COCCN1c1cc(=O)n2c(n1)N(Cc1cncc(F)c1)[C@H](C(F)(F)F)CC2 [Example 94, (S)-9-(5-Fluoropyridin-3-ylmethyl)-2-((R)-3-methylmorpholin-4-yl)-8-trifluoromethyl-6,7,8,9-tetrahydro-pyrimido[1,2-a]-pyrimidin-4-one] | < 10 nM
Cc1nnc(CN2c3nc(N4CCOC[C@H]4C)cc(=O)n3CC[C@H]2C(F)(F)F)o1 [Example 96, (S)-2-((R)-3-Methyl-morpholin-4-yl)-9-(5-methyl-[1,3,4]oxadiazol-2-yl-methyl)-8-trifluoromethyl-6,7,8,9-tetrahydro-pyrimido[1,2-a]-pyrimidin-4-one] | < 10 nM
C[C@@H]1COCCN1c1nc2n(c(=O)c1F)CC[C@@H](C(F)(F)F)N2CC(=O)C(C)(C)C [Example 97, (S)-9-(3,3-Dimethyl-2-oxobutyl)-3-fluoro-2-((R)-3-methyl-morpholin-4-yl)-8-trifluoromethyl-6,7,8,9-tetrahydro-pyrimido[1,2-a]-pyrimidin-4-one] | < 10 nM
C[C@@H]1COCCN1c1cc(=O)n2c(n1)N(Cc1ccc(Cl)s1)[C@H](C(F)(F)F)CC2 [Example 98, (S)-9-(5-Chloro-thiophen-2-ylmethyl)-2-((R)-3-methyl-morpholin-4-yl)-8-trifluoromethyl-6,7,8,9-tetrahydro-pyrimido[1,2-a]-pyrimidin-4-one] | < 10 nM

— patent US11739100B2, “2,3-dihydro-1h-imidazo{1,2-a}pyrimidin-5-one and this 1,2,3,4-tetrahydropyrimido{1,2-a}pyrimidin-6-one derivatives comprising a substituted morpholine, preparation thereof and pharmaceutical use thereof” (SANOFI, priority 2012, dated 2023)
